The values that follow are results of earlier work, collected in patent US8541630B2, “Process for producing dimethyl ether from methanol” (China Petroleum & Chemical Corporation, priority 2008, dated 2013).

Like-named read-outs stand apart in the source and are kept apart here.

Turning to `COC` [DME, Dimethyl ether], the Solubility (solvent Acetone (25° C.)) is listed as 11.83 wt %; the Solubility (solvent Benzene (25° C.)) is listed as 15.29 wt %; the Solubility (solvent CCl4 (25° C.)) was 16.33 wt %; the Solubility (solvent Chlorobenzene (106 kPa, 25° C.)) was 18.56 wt %; the Solubility (solvent Gasoline, 0° C.) is given as 19 wt %; the Solubility (solvent Gasoline, 25° C.) is on record as 7 wt %. In addition, the Solubility (solvent Gasoline, −40° C.) is reported as 64 wt %; the Solubility (solvent Methyl acetate (93.86 kPa, 25° C.)) is 11.1 wt %; the Solubility (solvent Water (24° C.)) is given as 35.3 wt %.
